Assay results as given in patent US20240140938A1, “PREPARATION OF TETRAHYDROINDAZOLE DERIVATIVES AS NOVEL DIACYLGLYCERIDE O-ACYLTRANSFERASE 2 INHIBITORS” (MERCK SHARP & DOHME LLC, priority 2020, published 2024).

Target: human DGAT2 (hDGAT2) (Homo sapiens (Human), UniProt Q96PD7)
Experiment: DGAT2 Enzymatic Activity Assay
Type: biochemical
Conditions: hDGAT2 Sf-9 membrane prep; 13C18-triolein product by LC/MS/MS; 25 μM diolein, 5 μM 13C oleoyl-CoA
Protocol: Sf-9 insect cells were maintained in Grace's insect cell culture medium with 10% heated-inactivated fetal bovine serum, 1% Pluronic F-68 and 0.14 μg/ml Kanamycine sulfate at 27° C. in a shaker incubator. After infection with untagged baculovirus expressing human DGAT2 (hDGAT2) at multiplicity of infection (MOI) 3 for 48 hours, cells were harvested. Cell pellets were suspended in buffer containing 10 mM Tris-HCl pH 7.5, 1 mM EDTA, 250 mM sucrose and Complete Protease Inhibitor Cocktail (Sigma Aldrich), and sonicated on ice. Cell debris were removed by centrifugation at 2000×g for 15 minutes. Membrane fractions were isolated by ultracentrifugation (100,000×g), resuspended in the same buffer, and frozen (−80° C.) for later use. The protein concentration was determined with the Pierce™ BCA Protein Assay Kit (Thermo Fisher Scientific).
LC/MS/MS analyses were performed using Thermal Fisher's LX4-TSQ Vantage system. This system consists of an Agilent binary high-performance liquid chromatography (HPLC) pump and a TSQ Vantage triple quadrupole MS/MS instrument. For each sample, 2 μL samples from the top organic layer of in-plate liquid-liquid extraction were injected onto a Thermo Betabasic C4 column (2.1 mm×20 mm, 5 μm particle size). The samples were then eluted using the following conditions; mobile phase: Isopropanol: acetonitrile/10 mM ammonium formate=50/35/15 (v/v/v), flow rate: 0.8 mL/min, temperature: 25° C. Data was acquired in positive mode using a heated electrospray ionization (HESI) interface. […] The peak area was integrated by Xcalibur Quan software. The ratio between the ^13C18triolein generated in the reaction and spiked in internal standard ^13C21-triolein was used to generate percentage inhibition and IC50 values. Compound percentage inhibition was calculated by the following formula: Inhibition %=1−[(compound response−low control)/(high control−low control)]×100%.
DGAT2 activity was determined by measuring the amount of enzymatic product ^13C18-triolein (^13C-1,2,3-Tri(cis-9-octadecenoyl)glycerol) using the membrane prep mentioned above. The assay was carried out in ABgene 384-well assay plates in a final volume of 25 μL at rt.

Chain of human DGAT2 (hDGAT2) (Q96PD7 whole entry): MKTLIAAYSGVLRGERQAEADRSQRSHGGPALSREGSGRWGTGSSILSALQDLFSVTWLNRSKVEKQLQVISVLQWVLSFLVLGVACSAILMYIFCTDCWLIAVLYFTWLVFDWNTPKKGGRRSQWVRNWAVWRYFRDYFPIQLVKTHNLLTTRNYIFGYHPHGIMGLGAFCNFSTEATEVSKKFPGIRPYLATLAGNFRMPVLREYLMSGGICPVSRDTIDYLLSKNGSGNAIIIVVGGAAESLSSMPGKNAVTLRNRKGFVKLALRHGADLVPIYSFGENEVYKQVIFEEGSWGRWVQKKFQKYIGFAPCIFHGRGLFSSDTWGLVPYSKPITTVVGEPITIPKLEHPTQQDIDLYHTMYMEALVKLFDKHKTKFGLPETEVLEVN

Structure (SMILES) | IC50
CC(C)n1nc(-c2cc(C3CC3)ccc2F)c2c1C[C@H](C(=O)NC1(C)CS(=O)(=O)C1)CC2 [Example 83, (R)-3-(5-cyclopropyl-2-fluorophenyl)-1-isopropyl-N-(3-methyl-1,1-dioxidothietan-3-yl)-4,5,6,7-tetrahydro-1H-indazole-6-carboxamide] | 46 nM
CCNS(=O)(=O)c1cccc(-c2nn(C(C)C)c3c2CC[C@@H](C(=O)NC2(C)CS(=O)(=O)C2)C3)c1 [Example 99, (R)-3-(3-(N-ethylsulfamoyl)phenyl)-1-isopropyl-N-(3-methyl-1,1-dioxidothietan-3-yl)-4,5,6,7-tetrahydro-1H-indazole-6-carboxamide] | > 10000 nM
CC(C)n1nc(-c2cc(OC(F)F)ccc2F)c2c1C[C@H](C(=O)NC1(C)CS(=O)(=O)C1)OC2 [Example 127, (R)-3-(5-(difluoromethoxy)-2-fluorophenyl)-1-isopropyl-N-(3-methyl-1,1-dioxidothietan-3-yl)-1,4,6,7-tetrahydropyrano[4,3-c]pyrazole-6-carboxamide] | 343 nM
CC(C1CC1)n1nc(-c2cc(OC(F)F)ccc2F)c2c1C[C@H](C(=O)NC1(C)CS(=O)(=O)C1)CC2 (single isomer, unassigned) [Example 58a] | 23.4 nM
CC1(NC(=O)[C@@H]2CCc3c(-c4cc(OC(F)F)ccc4F)nn(S(=O)(=O)C4CC4)c3C2)CS(=O)(=O)C1 [Example 116, (R)-1-(cyclopropylsulfonyl)-3-(5-(difluoromethoxy)-2-fluorophenyl)-N-(3-methyl-1,1-dioxidothietan-3-yl)-4,5,6,7-tetrahydro-1H-indazole-6-carboxamide] | 68.1 nM
CC(C)n1nc(-c2cc(C(C)(F)F)ncc2F)c2c1C[C@H](C(=O)NC1(C)CCS(=O)(=O)CC1)CC2 [Example 92, (R)-3-(2-(1,1-difluoroethyl)-5-fluoropyridin-4-yl)-1-isopropyl-N-(4-methyl-1,1-dioxidotetrahydro-2H-thiopyran-4-yl)-4,5,6,7-tetrahydro-1H-indazole-6-carboxamide] | 1210 nM
C[C@]1(NC(=O)[C@@H]2CCc3c(-c4cccc(OC(F)F)c4)nn(C(=O)c4ccccc4)c3C2)CCS(=O)(=O)C1 [Example 76, (R)-1-benzoyl-3-(3-(difluoromethoxy)phenyl)-N-((S)-3-methyl-1,1-dioxidotetrahydrothiophen-3-yl)-4,5,6,7-tetrahydro-1H-indazole-6-carboxamide] | 2740 nM
CC1(NC(=O)[C@@H]2CCc3c(-c4cccc(OC(F)F)c4)nn(-c4ccc(F)cn4)c3C2)CC(F)(F)C1 [Example 7, (R)-N-(3,3-difluoro-1-methylcyclobutyl)-3-(3-(difluoromethoxy)phenyl)-1-(5-fluoropyridin-2-yl)-4,5,6,7-tetrahydro-1H-indazole-6-carboxamide] | 12 nM
CC(C)n1nc(-c2cc(OC(F)F)ccc2F)c2c1C[C@H](C(=O)NC1(C)CS(=O)(=O)C1)CC2 [Example 82, (R)-3-(5-(difluoromethoxy)-2-fluorophenyl)-1-isopropyl-N-(3-methyl-1,1-dioxidothietan-3-yl)-4,5,6,7-tetrahydro-1H-indazole-6-carboxamide] | 30.8 nM
CCOc1cc(-c2nn(C(C)C)c3c2CC[C@@H](C(=O)NC2(C)CCS(=O)(=O)CC2)C3)c(F)cn1 [Example 22, (R)-3-(2-ethoxy-5-fluoropyridin-4-yl)-1-isopropyl-N-(4-methyl-1,1-dioxidotetrahydro-2H-thiopyran-4-yl)-4,5,6,7-tetrahydro-1H-indazole-6-carboxamide] | 144 nM
C[C@]1(NC(=O)[C@@H]2CCc3c(-c4cccc(C5(F)CC5)c4)nn(-c4ccc(F)cc4)c3C2)CCS(=O)(=O)C1 [Example 17, (R)-3-(3-(1-fluorocyclopropyl)phenyl)-1-(4-fluorophenyl)-N-((S)-3-methyl-1,1-dioxidotetrahydrothiophen-3-yl)-4,5,6,7-tetrahydro-1H-indazole-6-carboxamide] | 70.7 nM
CC(C)(NC(=O)[C@@H]1CCc2c(-c3cccc(OC(F)F)c3)nn(C3CCOCC3)c2C1)c1ccc(C(F)(F)F)nc1 [Example 27, (R)-3-(3-(difluoromethoxy)phenyl)-1-(tetrahydro-2H-pyran-4-yl)-N-(2-(6-(trifluoromethyl)pyridin-3-yl)propan-2-yl)-4,5,6,7-tetrahydro-1H-indazole-6-carboxamide] | 128 nM
CC(C)n1nc(-c2cccc(C3(O)CCC3)c2)c2c1C[C@H](C(=O)NC1(C)CC(F)(F)C1)CC2 [Example 103, (R)-N-(3,3-difluoro-1-methylcyclobutyl)-3-(3-(1-hydroxycyclobutyl)phenyl)-1-isopropyl-4,5,6,7-tetrahydro-1H-indazole-6-carboxamide] | > 10000 nM
CC(C)n1nc(-c2cc(OC(F)F)ccc2F)c2c1C[C@H](C(=O)NC1(C#N)CCS(=O)(=O)CC1)CC2 [Example 52, (R)-N-(4-cyano-1,1-dioxidotetrahydro-2H-thiopyran-4-yl)-3-(5-(difluoromethoxy)-2-fluorophenyl)-1-isopropyl-4,5,6,7-tetrahydro-1H-indazole-6-carboxamide] | 4.7 nM
CCOc1cc(-c2nn(C(C)C)c3c2CC[C@@H](C(=O)NC2(C)CS(=O)(=O)C2)C3)c(F)cn1 [Example 34, (R)-3-(2-ethoxy-5-fluoropyridin-4-yl)-1-isopropyl-N-(3-methyl-1,1-dioxidothietan-3-yl)-4,5,6,7-tetrahydro-1H-indazole-6-carboxamide] | 117 nM
[2H]C([2H])([2H])C([2H])(n1nc(-c2cc(OC(F)F)ccc2F)c2c1C[C@H](C(=O)NC1(C)CCS(=O)(=O)CC1)CC2)C([2H])([2H])[2H] [Example 46, (R)-3-(5-(difluoromethoxy)-2-fluorophenyl)-N-(4-methyl-1,1-dioxidotetrahydro-2H-thiopyran-4-yl)-1-(propan-2-yl-d7)-4,5,6,7-tetrahydro-1H-indazole-6-carboxamide] | 37.9 nM
CC1(NC(=O)[C@@H]2CCc3c(-c4cncc(OC(F)F)c4)nn(-c4ccc(F)cn4)c3C2)CS(=O)(=O)C1 [Example 12, (R)-3-(5-(difluoromethoxy)pyridin-3-yl)-1-(5-fluoropyridin-2-yl)-N-(3-methyl-1,1-dioxidothietan-3-yl)-4,5,6,7-tetrahydro-1H-indazole-6-carboxamide] | 65.8 nM

Further lines, results first:

IC50 | Structure (SMILES)
99.9 nM | CC1(NC(=O)[C@@H]2CCc3c(-c4cc(OC(F)F)ccc4F)nn(C4CCCC4O)c3C2)CS(=O)(=O)C1 (single isomer, unassigned) [Example 114c]
11.3 nM | CC(n1nc(-c2cc(OCC(F)(F)F)ncc2F)c2c1C[C@H](C(=O)N[C@@]1(C)CCS(=O)(=O)C1)CC2)C(C)(C)O (single isomer, unassigned) [Example 112a]
70.3 nM | CC(n1nc(-c2cc(OCC(F)(F)F)ncc2F)c2c1C[C@H](C(=O)NC1(C#N)CCS(=O)(=O)CC1)CC2)C(C)(C)O (single isomer, unassigned) [Example 113b]
3.9 nM | CC(n1nc(-c2cc(OCC(F)(F)F)ncc2F)c2c1C[C@H](C(=O)NC1(C)CCS(=O)(=O)CC1)CC2)C(C)(C)O (single isomer, unassigned) [Example 107a]
5.4 nM | CC(n1nc(-c2cc(OCC(F)(F)F)ncc2F)c2c1C[C@H](C(=O)NC1(C)CCS(=O)(=O)CC1)CC2)C(C)(C)O (single isomer, unassigned) [Example 107b]
44.5 nM | CC1(NC(=O)[C@@H]2CCc3c(-c4cc(OC(F)F)ccc4F)nn(C4CCCC4O)c3C2)CS(=O)(=O)C1 (single isomer, unassigned) [Example 114a]
